Experiments:
Phakopsora pachyrhizi = Phakopsora pachyrhizi / soybean / leaf disc preventative (Asian soybean rust); format: in vivo; conditions: foliar, 200 ppm in the applied formulation, soybean leaf disks, inoculated one day after application, vs untreated, 12 to 14 days after application, read-out: disease control
Method in brief: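 Soybean leaf discs on water agar sprayed with formulated compound diluted in water, then inoculated one day later with spore suspension on the lower surface. Held 24-36 h dark at 20 °C, 75% rh, then 12 h light/day; percent disease control versus untreated scored 12-14 days after application.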

Uromyces viciae-fabae = Uromyces viciae-fabae / field bean / leaf disc preventative (faba-bean rust); format: in vivo; conditions: foliar, 288 h, 100 ppm in the applied formulation, field bean leaf discs, inoculated two hours after application, vs untreated, 12 days after application, read-out: disease control
Method: Leaf disks or leaf segments of various plant species are cut from plants grown in a greenhouse. The cut leaf disks or segments are placed in multiwell plates (24-well format) onto water agar. The leaf disks are sprayed with a test solution before (preventative) or after (curative) inoculation. Compounds to be tested are prepared as DMSO solutions (max. 10 mg/ml) which are diluted to the appropriate concentration with 0.025% Tween20 just before spraying. The inoculated leaf disks or segments are incubated under defined conditions (temperature, relative humidity, light, etc.) according to the respective test system. A single evaluation of disease level is carried out 3 to 14 days after inoculation, depending on the pathosystem. Percent disease control relative to the untreated check leaf disks or segments is then calculated.
Example 5: Fungicidal Activity Against Uromyces viciae-fabael Field Bean/Leaf Disc Preventative (Faba-Bean Rust)
Field bean leaf discs are placed on water agar in multiwell plates (96-well format) and 10 μl of the Formulated test compound diluted in acetone and a spreader pipetted onto the leaf disc. Two hours after application leaf discs are inoculated by spraying a spore suspension on the lower leaf surface. The leaf discs are incubated in a climate cabinet at 22° C. with 18 hour day and 70% relative humidity. The activity of a compound is assessed as percent disease control compared to untreated when an appropriate level of disease damage appears in untreated check leaf disks (12 days after application).
The following compounds at 100 ppm in the applied Formulation give at least 80% disease control in this test when compared to untreated control leaf discs under the same conditions, which show extensive disease development.

[1] = system: Glomerella lacenarium (Colletotrichum lacenarium); experiment: Glomerella lacenarium (Colletotrichum lacenarium) liquid culture / cucumber / preventative (anthracnose); format: cell-based; conditions: 20 ppm, liquid culture in PDB, 24° C., inhibition of growth measured photometrically 3 to 4 days after application, vs untreated, read-out: disease control
Method in brief: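 Cryopreserved conidia in potato dextrose broth were added to test compound in a 96-well microtiter plate and incubated at 24 °C. Growth inhibition read photometrically 3–4 days after application, as percent activity versus untreated check.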

[2] = system: Puccinia recondita f. Sp. Tritici; experiment: Puccinia recondita f. sp. tritici / wheat / leaf disc preventative (brown rust); format: in vivo; conditions: foliar, 200 ppm in the applied formulation, wheat leaf segments cv. Kanzler, inoculated 1 day after application, vs untreated, 7 to 9 days after application, read-out: disease control
Method in brief: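 Preventative leaf-segment test on wheat cv. Kanzler: formulated compound diluted in water was sprayed onto segments on agar, with spore inoculation 1 day later. Incubated at 19° C, 75% rh, 12 h light/12 h dark; percent disease control versus untreated scored 7 to 9 days after application.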

[3] = system: Puccinia recondita f. Sp. Tritici; experiment: Puccinia recondita f. sp. tritici / wheat / leaf disc curative (brown rust); format: in vivo; conditions: foliar, 200 ppm in the applied formulation, wheat leaf segments cv. Kanzler, compound applied 1 day after inoculation, vs untreated, 6 to 8 days after application, read-out: disease control
Method in brief: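 Wheat leaf segments (cv. Kanzler) on agar inoculated with brown rust spores, held dark at 19 °C/75% RH, then sprayed 1 day post-inoculation with formulated compound diluted in water (curative). Incubated at 19 °C/75% RH, 12 h light/12 h dark; percent disease control versus untreated scored 6–8 days after application.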

melting point [°C] | Compound | pest or weed control at 200 ppm (Phakopsora pachyrhizi) [%] | pest or weed control at 100 ppm (Uromyces viciae-fabae) [%] | inhibition of growth at 20 ppm [1] [%] | pest or weed control at 200 ppm [2] [%] | pest or weed control at 200 ppm [3] [%]
172.8 to 174.3 | O=C(Nc1ccc(-c2noc(C(F)(F)F)n2)cn1)c1ccccc1 [Compound 1.46, N-[5-[5-(trifluoromethyl)-1,2,4-oxadiazol-3-yl]-2-pyridyl]benzamide] | ≥ 80 | ≥ 80 |  |  | 
146 to 147 | O=C(Nc1ccc(-c2noc(C(F)(F)F)n2)cc1)C(F)(F)F [Compound 2.2, 2,2,2-trifluoro-N-[4-[5-(trifluoromethyl)-1,2,4-oxadiazol-3-yl]phenyl]acetamide] |  | ≥ 80 | ≥ 80 |  | 
118 to 121 | CC(C)=CCONC(=O)Nc1ccc(-c2noc(C(F)(F)F)n2)cc1 [Compound 1.66, 1-(3-methylbut-2-enoxy)-3-[4-[5-(trifluoromethyl)-1,2,4-oxadiazol-3-yl]phenyl]urea] |  |  | ≥ 80 | ≥ 80 | 
115 to 120 | O=C(Nc1ccc(-c2noc(C(F)(F)F)n2)cc1)C1CCCO1 (centres unmarked) [Compound 1.41, N-[4-[5-(trifluoromethyl)-1,2,4-oxadiazol-3-yl]phenyl] tetrahydrofuran-2-carboxamide] | ≥ 80 | ≥ 80 | ≥ 80 | ≥ 80 | ≥ 80
73 to 76 | CONC(=O)N(C)c1ccc(-c2noc(C(F)(F)F)n2)cc1 [Compound 1.132, 3-methoxy-1-methyl-1-[4-[5-(trifluoromethyl)-1,2,4-oxadiazol-3-yl]phenyl]urea] |  |  | ≥ 80 | ≥ 80 | ≥ 80
134 to 137 | C=C(C)CONC(=O)Nc1ccc(-c2noc(C(F)(F)F)n2)cc1 [Compound 1.70, 1-(2-methylallyloxy)-3-[4-[5-(trifluoromethyl)-1,2,4-oxadiazol-3-yl]phenyl]urea] | ≥ 80 |  | ≥ 80 | ≥ 80 | ≥ 80
113 to 116 | CCN(OC)C(=O)Nc1ccc(-c2noc(C(F)(F)F)n2)cc1 [Compound 1.67, 1-ethyl-1-methoxy-3-[4-[5-(trifluoromethyl)-1,2,4-oxadiazol-3-yl]phenyl]urea] | ≥ 80 |  | ≥ 80 | ≥ 80 | ≥ 80
110 to 112 | CC(C)(C)NC(=O)CN(C(=O)C1CC1)c1ccc(-c2noc(C(F)(F)F)n2)cc1 [Compound 1.60, N-[2-(tert-butylamino)-2-oxo-ethyl]-N-[4-[5-(trifluoromethyl)-1,2,4-oxadiazol-3-yl]phenyl]cyclopro-panecarboxamide] |  | ≥ 80 | ≥ 80 |  | 
78 to 86 | CCC(=O)N(C)c1ccc(-c2noc(C(F)(F)F)n2)cc1 [Compound 2.17, N-methyl-N-[4-[5-(trifluoromethyl)-1,2,4-oxadiazol-3-yl]phenyl] propanamide] | ≥ 80 |  | ≥ 80 | ≥ 80 | ≥ 80
89 to 92 | COCCN(OC)C(=O)Nc1ccc(-c2noc(C(F)(F)F)n2)cc1 [Compound 1.68, 1-methoxy-1-(2-methoxyethyl)-3-[4-[5-(trifluoromethyl)-1,2,4-oxadiazol-3-yl]phenyl]urea] | ≥ 80 |  | ≥ 80 | ≥ 80 | ≥ 80
200 to 204 | O=C(Nc1ccc(-c2noc(C(F)(F)F)n2)cc1)c1cn[nH]c1 [Compound 1.11, N-[4-[5-(trifluoromethyl)-1,2,4-oxadiazol-3-yl]phenyl]-1H-pyrazole-4-carboxamide] |  | ≥ 80 |  |  | 
162 to 163 | O=C(Nc1ccc(-c2noc(C(F)(F)F)n2)cc1)c1ccccc1C(F)(F)F [Compound 1.1, 2-(trifluoromethyl)-N-[4-[5-(trifluoromethyl)-1,2,4-oxadiazol-3-yl]phenyl]benzamide] | ≥ 80 | ≥ 80 | ≥ 80 |  | 
93 to 94 | COCC(=O)Nc1ccc(-c2noc(C(F)(F)F)n2)cc1 [Compound 2.1, 2-methoxy-N-[4-[5-(trifluoromethyl)-1,2,4-oxadiazol-3-yl]phenyl]acetamide] | ≥ 80 | ≥ 80 | ≥ 80 | ≥ 80 | ≥ 80
151 to 154 | CONC(=O)Nc1ccc(-c2noc(C(F)(F)F)n2)cn1 [Compound 1.63, 1-methoxy-3-[5-[5-(trifluoromethyl)-1,2,4-oxadiazol-3-yl]-2-pyridyl]urea] | ≥ 80 |  | ≥ 80 |  | 
164 to 167 | CON1CCN(C(=O)Nc2ccc(-c3noc(C(F)(F)F)n3)cc2)CC1 [Compound 1.130, 4-methoxy-N-[4-[5-(trifluoromethyl)-1,2,4-oxadiazol-3-yl]phenyl]piperazine-1-carboxamide] | ≥ 80 |  | ≥ 80 | ≥ 80 | ≥ 80
65 to 68 | C=C(C)CON(C)C(=O)Nc1ccc(-c2noc(C(F)(F)F)n2)cc1 [Compound 1.131, 1-methyl-1-(2-methylallyloxy)-3-[4-[5-(trifluoromethyl)-1,2,4-oxadiazol-3-yl]phenyl]urea] | ≥ 80 |  | ≥ 80 | ≥ 80 | ≥ 80
117 to 120 | O=C(Nc1ccc(-c2noc(C(F)(F)F)n2)cc1)N1CCCCO1 [Compound 2.23, N-[4-[5-(trifluoromethyl)-1,2,4-oxadiazol-3-yl]phenyl]oxazinane-2-carboxamide] | ≥ 80 |  | ≥ 80 | ≥ 80 | ≥ 80
124 to 127 | C=CCONC(=O)Nc1ccc(-c2noc(C(F)(F)F)n2)cc1 [Compound 2.3, 1-allyloxy-3-[4-[5-(trifluoromethyl)-1,2,4-oxadiazol-3-yl]phenyl]urea] | ≥ 80 | ≥ 80 | ≥ 80 | ≥ 80 | ≥ 80
115 to 117 | COCC(=O)N(c1ccc(-c2noc(C(F)(F)F)n2)cc1)C(C)C(=O)NC(C)(C)C (centres unmarked) [Compound 1.62, N-tert-butyl-2-[N-(2-methoxyacetyl)-4-[5-(trifluoromethyl)-1,2,4-oxadiazol-3-yl]anilino] propanamide] |  | ≥ 80 |  |  | 
152 to 155 | CONC(=O)Nc1ccc(-c2noc(C(F)(F)F)n2)cc1 [Compound 2.30, 1-methoxy-3-[4-[5-(trifluoromethyl)-1,2,4-oxadiazol-3-yl]phenyl]urea] |  |  | ≥ 80 | ≥ 80 | 

Source: patent US20200022370A1, “MICROBIOCIDAL OXADIAZOLE DERIVATIVES” (SYNGENTA PARTICIPATIONS AG, priority 2016, published 2020)
